Data from US9232796B2, “Herbicidal compositions comprising 4-amino-3-chloro-5-fluoro-6-(4-chloro-2-fluoro-3-methoxyphenyl) pyridine-2-carboxylic acid or a derivative thereof and acetyl-CoA carboxylase (ACCase) inhibitors” (DOW AGROSCIENCES LLC, priority 2012, dated 2016).

Experiments:
DIGSA = assay: Example I postemergence foliar-applied, greenhouse, direct seeded rice weeds; type: in vivo, Digitaria sanguinalis (L.) Scop.
Source text: Seeds or nutlets of the desired test plant species were planted in a soil matrix prepared by mixing a loam or sandy loam soil (e.g., 28.6 percent silt, 18.8 percent clay, and 52.6 percent sand, with a pH of about 5.8 and an organic matter content of about 1.8 percent) and calcareous grit in an 80 to 20 ratio. The soil matrix was contained in plastic pots with a volume of 1 quart and a surface area of 83.6 square centimeters (cm^2). When required to ensure good germination and healthy plants, a fungicide treatment and/or other chemical or physical treatment was applied. The plants were grown for 8-22 days in a greenhouse with an approximate 14 hr. photoperiod which was maintained at about 29° C. during the day and 26° C. during the night. Nutrients (Peters Excel® 15-5-15 5-Ca 2-Mg and iron chelate) were applied in the irrigation solution as needed and water was added on a regular basis. Supplemental lighting was provided with overhead metal halide 1000-Watt lamps as necessary. The plants were employed for testing when they reached the first through fourth true leaf stage.
Treatments consisted of the acid or esters of 4-amino-3-chloro-5-fluoro-6-(4-chloro-2-fluoro-3-methoxy-phenyl)pyridine-2-carboxylic acid (Compound A), each formulated as an SC (suspension concentrate), and various herbicidal components alone and in combination. […]
Treatment requirements were calculated based upon the rates being tested, the concentration of active ingredient or acid equivalent in the formulation, and a 12 mL application volume at a rate of 187 L/ha.
For treatments comprised of formulated compounds, measured amounts of compounds were placed individually in 25 mL glass vials and diluted in a volume of 1.25% (v/v) Agri-Dex® crop oil concentrated to obtain 12× stock solutions. […]
(§1) The treated plants and control plants were placed in a greenhouse as described above and watered by sub-irrigation to prevent wash-off of the test compounds. After approximately 3 weeks, the condition of the test plants as compared with that of the untreated plants was determined visually and scored on a scale of 0 to 100 percent where 0 corresponds to no injury or growth inhibition and 100 corresponds to complete kill. […]

ALOMY = assay: Example IV postemergence foliar-applied, greenhouse, cereal crops weeds; type: in vivo, Alopecurus myosuroides Huds.
Method: Seeds of the desired test plant species were planted in Sun Gro MetroMix® 306 planting mixture, which typically has a pH of 6.0 to 6.8 and an organic matter content of about 30 percent, in plastic pots with a surface area of 103.2 square centimeters (cm^2). When required to ensure good germination and healthy plants, a fungicide treatment and/or other chemical or physical treatment was applied. The plants were grown for 7-36 days in a greenhouse with an approximate 14 hour photoperiod which was maintained at about 18° C. during the day and about 17° C. during the night. Nutrients and water were added on a regular basis and supplemental lighting was provided with overhead metal halide 1000-Watt lamps as necessary. The plants were employed for testing when they reached the second or third true leaf stage.
Treatments consisted of the benzyl ester of 4-amino-3-chloro-5-fluoro-6-(4-chloro-2-fluoro-3-methoxy-phenyl)pyridine-2-carboxylic acid (Compound A), formulated as an SC, a second cereal herbicide alone and then both in combination.
Other herbicidal components were applied on an active ingredient basis and included acetyl-CoA carboxylase (ACCase)-inhibiting herbicides clodinafop-propargyl, fenoxaprop-P-ethyl, pinoxaden and tralkoxydim.
Measured aliquots of benzyl ester of 4-amino-3-chloro-5-fluoro-6-(4-chloro-2-fluoro-3-methoxy-phenyl)pyridine-2-carboxylic acid (Compound A) were placed in 25 milliliter (mL) glass vials and diluted in a volume of 1.25% (v/v) Agri-Dex® crop oil concentrate to obtain stock solutions. Compound requirements are based upon a 12 mL application volume at a rate of 187 liters per hectare (L/ha). Spray solutions of the second cereal herbicide and experimental compound mixtures were prepared by adding the stock solutions to the appropriate amount of dilution solution to form 12 mL spray solution with active ingredients in two- and three-way combinations. Formulated compounds were applied to the plant material with an overhead Mandel track sprayer equipped with an 8002E nozzle calibrated to deliver 187 L/ha over an application area of 0.503 square meters (m^2) at a spray height of 18 inches (46 cm) above average plant canopy. Control plants were sprayed in the same manner with the solvent blank.
as §1, with “20-22 days,” for “approximately 3 weeks,”, “control” for “untreated”, “injury” for “injury or growth inhibition”

SMILES: COc1c(Cl)ccc(-c2nc(C(=O)OCc3ccccc3)c(Cl)c(N)c2F)c1F [Compound A Benzyl Ester, benzyl ester of 4-amino-3-chloro-5-fluoro-6-(4-chloro-2-fluoro-3-methoxy-phenyl)pyridine-2-carboxylic acid]
- Visual Weed Control (%) - 20 DAA DIGSA Obs (DIGSA; 8 gae/ha): 15%
- Visual Weed Control (%) - 20 DAA DIGSA Obs (DIGSA; 16 gae/ha): 25%
- Visual Weed Control (%) - 20 DAA DIGSA Obs (DIGSA; 32 gae/ha): 35%
- Visual Weed Control (%) - 21 DAA ALOMY Obs (ALOMY; Compound A Benzyl Ester 5 gai/ha): 0%
- Visual Weed Control (%) - 21 DAA ALOMY Obs (ALOMY; Compound A Benzyl Ester 10 gai/ha): 0%
